Measurements as given in the supplement of paper PMC12137928.
Counter-ions that a name gives are not always drawn.

How the values were obtained:
HCT116 [1] = conditions: 72 h
How it was run: (§1)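 HCT116 cells were seeded at 250 per well in 1536-well plates and left 5 h to attach. CellTiter-Glo luminescence was scaled to vehicle (0%) and positive control (-100%), then pattern-corrected. IC50 and maximal efficacy came from four-parameter Hill fits.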

HCT116 [2] = experiment: efficacy (maximum % inhibition of viability vs DMSO); higher = more cytotoxic; conditions: 72 h
How it was run: as §1

Row | Compound | IC50 cell viability (HCT116 [1]; ICRF193 0 nM) [µM] | IC50 cell viability (HCT116 [1]; ICRF193 200 nM) [µM] | efficacy (HCT116 [2]; ICRF193 200 nM) [%] | efficacy (HCT116 [2]; ICRF193 0 nM) [%]
1 | C=C1/C(=C\C=C2/CCC[C@]3(C)[C@@H]([C@H](C)/C=C/[C@@H](O)C4CC4)CC[C@@H]23)C[C@@H](O)C[C@@H]1O [Calcipotriene] | > 45.8 | 20.6 | 54 | 
2 | COC(=O)[C@H]1[C@H]2C[C@@H]3c4[nH]c5cc(OC)ccc5c4CCN3C[C@H]2C[C@@H](OC(=O)c2cc(OC)c(OC)c(OC)c2)[C@@H]1OC [Reserpine] | > 45.8 | 16.4 | 42.6 | 
3 | CC1=C(C(=O)OCCN(Cc2ccccc2)c2ccccc2)C(c2cccc([N+](=O)[O-])c2)C(P2(=O)OCC(C)(C)CO2)=C(C)N1 (stereo unspecified) [Efonidipine hydrochloride monoethanolate] | 16.4 | > 45.8 |  | 41.1
4 | O=C(Oc1cccc2cccnc12)c1ccccc1 [Benzoxiquine] | > 45.8 | 29.1 | 70.8 | 
5 | O=C(c1ccc(F)c(F)c1Nc1ccc(I)cc1F)N1CC(O)([C@@H]2CCCCN2)C1 [Cobimetinib] | 18.3 | 9.2 | 75.9 | 55.7
6 | CC(=O)Oc1ccc(C(c2ccc(OC(C)=O)cc2)c2ccccn2)cc1 [Bisacodyl] | 2.06 | > 45.8 |  | 48.1
7 | Clc1ccc(CO/N=C(\Cn2ccnc2)c2ccc(Cl)cc2Cl)c(Cl)c1 [Oxiconazole nitrate] | 29.1 | 20.6 | 101 | 104
8 | Cc1nc2c([nH]1)-c1ccccc1N(C(=O)c1ccc(NC(=O)c3ccccc3-c3ccccc3)cc1)CC2 [Conivaptan hydrochloride] | > 45.8 | 29.1 | 60 | 
9 | CCOc1ccc2nc3cc(N)ccc3c(N)c2c1 [Ethacridine lactate hydrate] | 18.3 | 29.1 | 50.6 | 54.4
10 | O=C1NC2CCCCN2C12CCN(CCCN1c3ccccc3CCc3ccc(Cl)cc31)CC2 (stereo unspecified) [Mosapramine] | 20.6 | 23.1 | 129 | 125
11 | Oc1ccc(Cl)cc1Cc1cc(Cl)ccc1O [Dichlorophen] | 10.3 | 8.2 | 99.9 | 106
12 | CSc1ccc2c(c1)N(CCC1CCCCN1C)c1ccccc1S2 (stereo unspecified) [Thioridazine] | 23.1 | 18.3 | 95 | 115
13 | CN1CCN2c3ccccc3Cc3ccccc3C2C1 (stereo unspecified) [Mianserin] | 23.1 | 29.1 | 62 | 51
14 | CC[C@]1(O)C[C@@H]2CN(CCc3c([nH]c4ccccc34)[C@@](C(=O)OC)(c3cc4c(cc3OC)N(C)[C@H]3[C@@](O)(C(N)=O)[C@H](O)[C@]5(CC)C=CCN6CC[C@]43[C@@H]65)C2)C1 [Vindesine sulfate salt] | 0.058 | 0.058 | 69.2 | 75.5
15 | Cc1cc(/C=C/c2ccc3cc(N(C)C)ccc3[n+]2C)c(C)n1-c1ccccc1 [PYRVINIUM PAMOATE] | 20.6 | 18.3 | 93.2 | 111
16 | COc1c(C)c2c(c(O)c1C/C=C(\C)CCC(=O)OCCN1CCOCC1)C(=O)OC2 [Mycophenolate mofetil] | 1.83 | 1.64 | 74.4 | 74
17 | Oc1c(I)cc(I)c2cccnc12 [Iodoquinol] | 13 | 10.3 | 91.7 | 84.8
18 | COc1ccc(C(Cl)=C(c2ccc(OC)cc2)c2ccc(OC)cc2)cc1 [Chlorotrianisene] | > 45.8 | 23.1 | 45.8 | 
19 | CC(=O)N(O)CCCCCNC(=O)CCC(=O)N(O)CCCCCNC(=O)CCC(=O)N(O)CCCCCN [Deferoxamine mesylate] | 29.1 | 29.1 | 105 | 99.1
20 | CC(C)=CCOc1ccc(/C=C/C(=O)c2ccc(OCC=C(C)C)cc2OCC(=O)O)cc1 [Sofalcone] | 29.1 | > 45.8 |  | 108
21 | Cc1oncc1C(=O)Nc1ccc(C(F)(F)F)cc1 [Leflunomide] | 20.6 | 13 | 55.8 | 57.6
22 | CC(CCc1ccccc1)NC(C)C(O)c1ccc(O)cc1 (stereo unspecified) [Nylidrin] | > 45.8 | 16.4 | 40.7 | 
23 | CC[C@]1(O)C[C@H]2CN(CCc3c([nH]c4ccccc34)[C@@](C(=O)OC)(c3cc4c(cc3OC)N(C=O)[C@H]3[C@@](O)(C(=O)OC)[C@H](OC(C)=O)[C@]5(CC)C=CCN6CC[C@]43[C@@H]65)C2)C1 [Vincristine] | 0.164 | 0.183 | 63.5 | 70.2
24 | CCc1nc(N)nc(N)c1-c1ccc(Cl)cc1 [Pyrimethamine] | 11.6 | 9.2 | 93.4 | 106
25 | CC(C)(C)C(=O)OCOP(=O)(COCCn1cnc2c(N)ncnc21)OCOC(=O)C(C)(C)C [Adefovir dipivoxil] | 14.6 | 13 | 79.3 | 63.1
26 | C=C[C@@H]1C[C@]1(NC(=O)[C@@H]1C[C@@H]2CN1C(=O)[C@H](C(C)(C)C)NC(=O)O[C@@H]1C[C@H]1CCCCCc1nc3ccc(OC)cc3nc1O2)C(=O)NS(=O)(=O)C1CC1 [MK-5172] | 29.1 | 18.3 | 81.1 | 91.6

Row | Compound | IC50 cell viability (HCT116 [1]; ICRF193 0 nM) [µM] | IC50 cell viability (HCT116 [1]; ICRF193 200 nM) [µM] | efficacy (HCT116 [2]; ICRF193 200 nM) [%] | efficacy (HCT116 [2]; ICRF193 0 nM) [%]
27 | C=CCNc1c(O)cc2c(O)c1C[C@@H](C)C[C@H](OC)[C@H](O)[C@@H](C)/C=C(\C)[C@H](OC(N)=O)[C@@H](OC)/C=C\C=C(/C)C(=O)N2 [Retaspimycin (Hydrochloride)] | 1.16 | 0.291 | 79.8 | 80.4
28 | CN(C)CC/C=C1/c2ccccc2Sc2ccc(Cl)cc21 [Chlorprothixene] | 16.4 | 25.9 | 68.9 | 66.1
29 | CN(C)CCCN1c2ccccc2Sc2ccc(Cl)cc21 [Chlorpromazine] | 20.6 | 29.1 | 93.2 | 117
30 | CCCCCCCCc1ccc(CCC(N)(CO)CO)cc1 [Fingolimod hydrochloride] | 29.1 | 20.6 | 100 | 108
31 | CC(C)NCC(O)COc1ccc(CCOCC2CC2)cc1 (stereo unspecified) [Betaxolol HCl] | > 45.8 | 5.17 | 76.2 | 
32 | CC[C@@]1(O)C(=O)OCc2c1cc1n(c2=O)Cc2c-1nc1cc(F)c(C)c3c1c2[C@@H](N)CC3 [Exatecan] | 0.0259 | 0.0231 | 48.8 | 60
33 | O=c1c(-c2ccccc2)c1-c1ccccc1 [Diphenylcyclopropenone] | 29.1 | > 45.8 |  | 100
34 | C1CCC(C(CC2CCCCN2)C2CCCCC2)CC1 (stereo unspecified) [Perhexiline] | 18.3 | 18.3 | 100 | 90.2
35 | O=C1NCCN1CCN1CCC(c2cn(-c3ccc(F)cc3)c3ccc(Cl)cc23)CC1 [Sertindole] | 16.4 | 23.1 | 117 | 105
36 | CC(=O)Nc1cccc(-n2c(=O)n(C3CC3)c(=O)c3c(Nc4ccc(I)cc4F)n(C)c(=O)c(C)c32)c1 [Trametinib] | 0.259 | 0.0206 | 82.8 | 92.3
37 | O=C1CCc2cc(OCCCCc3nnnn3C3CCCCC3)ccc2N1 [Cilostazol] | > 45.8 | 23.1 | 46 | 
38 | CCc1c(Cl)c(O)c(Cl)c(O)c1C(=O)O[C@H]1[C@H](O)[C@H](OC)[C@H](OC/C2=C\C=C\C[C@H](O)/C(C)=C/[C@H](CC)[C@@H](O[C@@H]3OC(C)(C)[C@@H](OC(=O)C(C)C)[C@H](O)[C@@H]3O)/C(C)=C/C(C)=C/C[C@@H]([C@@H](C)O)OC2=O)O[C@@H]1C [Fidaxomicin] | 20.6 | 20.6 | 53.2 | 103
39 | COc1cc(/C=C/C(=O)O[C@H]2CC[C@]34C[C@]35CC[C@]3(C)[C@@H]([C@H](C)CCC=C(C)C)CC[C@@]3(C)[C@@H]5CC[C@H]4C2(C)C)ccc1O [gamma-Oryzanol] | > 45.8 | > 45.8 |  | 
40 | CCCCNc1cc(C(=O)O)cc(S(N)(=O)=O)c1Oc1ccccc1 [Bumetanide] | > 45.8 | > 45.8 |  | 
41 | O=C(Cn1c(=O)sc2ccc(Cl)cc21)N1CCN(CCO)CC1 [Tiaramide hydrochloride] | > 45.8 | > 45.8 |  | 
42 | CC(C)(C)NCC(O)c1cc(Cl)c(N)c(C(F)(F)F)c1 (stereo unspecified) [Mabuterol hydrochloride] | > 45.8 | > 45.8 |  | 
43 | CC(=O)Oc1cccc(C)c1 [m-Cresyl acetate] | > 45.8 | > 45.8 |  | 
44 | NCCC(O)(P(=O)(O)O)P(=O)(O)O [Pamidronic acid] | > 45.8 | > 45.8 |  | 
45 | COP(=S)(OC)Oc1cc(Cl)c(Cl)cc1Cl [Fenchlorphos] | > 45.8 | > 45.8 |  | 
46 | O=C(O)c1ccccn1 [Picolinic acid] | > 45.8 | > 45.8 |  | 
47 | CC(C(=O)O)c1ccc(CC2CCCC2=O)cc1 (stereo unspecified) [Loxoprofen] | > 45.8 | > 45.8 |  | 
48 | CC(O)Cn1cnc2c1c(=O)n(C)c(=O)n2C (stereo unspecified) [Proxyphylline] | > 45.8 | > 45.8 |  | 
49 | CN1CCN(c2cc3c(cc2F)c(=O)c(C(=O)O)cn3-c2ccc(F)cc2)CC1 [Difloxacin hydrochloride] | > 45.8 | > 45.8 |  | 
50 | CO[C@H]1/C=C/O[C@@]2(C)Oc3c(C)c(O)c4c(O)c(c5c(nc6cc(C)ccn65)c4c3C2=O)NC(=O)/C(C)=C\C=C\[C@H](C)[C@H](O)[C@@H](C)[C@@H](O)[C@@H](C)[C@H](OC(C)=O)[C@@H]1C [Rifaximin] | > 45.8 | > 45.8 |  | 
51 | CCC(=O)O[C@@H]1CC(=O)O[C@H](C)C/C=C/C=C/[C@H](OC(C)=O)[C@H](C)C[C@H](CC=O)[C@H](O[C@@H]2O[C@H](C)[C@@H](O[C@H]3C[C@@](C)(OC(C)=O)[C@@H](OC(=O)CC)[C@H](C)O3)[C@H](N(C)C)[C@H]2O)[C@H]1OC [Midecamycin Acetate] | > 45.8 | > 45.8 |  | 
